Patent US10588321B2, “Method for using mustard meal or an extract thereof” (University of Idaho, priority 2015, dated 2020)

Columns and labels:
liverwort = experiment: Liverwort control by spraying; type: in vivo; conditions: for contribution to phytotoxicity, in words: liverwort; for liverwort control, in words: sprayed on liverwort
Source text: The sinalbin had been hydrolyzed to undetectable levels.

[1] = system: weeds, vegetative cover, wheat, cotton; conditions: cited from earlier work
potato sprouting = conditions: in vivo; cited from earlier work

| SMILES | contribution to phytotoxicity, in words (liverwort) | liverwort control, in words (liverwort) | effect on potato sprouting, in words (potato sprouting) | further results |
| --- | --- | --- | --- | --- |
| OCc1ccc(O)cc1 [4-hydroxybenzyl alcohol] | primary phytotoxic compounds | did not control the liverwort as effectively as applying the extract |  | contribution to phytotoxicity, in words (liverwort; listed as 4-OH benzyl alcohol): more phytotoxic that SCN^− |
| N#CCc1ccc(O)cc1 [4-hydroxyphenyl acetonitrile] | primary phytotoxic compounds | did not control the liverwort as effectively as applying the extract |  | contribution to phytotoxicity, in words (liverwort; listed as nitrile): much more phytotoxic than SCN^− |
| N#CS [SCN^−, ionic thiocyanate] | minor contributor |  |  | rate causing inhibition of wheat germination ([1]; effect no longer observed at 69 days post application): 342 kilograms SCN^−/ha; rate necessary for complete plant kill for 4 months ([1]; in vivo): 1,366 kg SCN^−/ha; rate removing a large percentage of the weeds ([1]; in vivo): 137 kilograms SCN^−/ha; rate at which cotton defoliation was possible ([1]; solutions sprayed directly on vegetative growth): 8.6 kilograms SCN^−/ha |
| N.N#CS [ammonium thiocyanate (NH4SCN), ammonium thiocyanate] |  |  | promote potato sprouting |  |
| N#C[S-].[K+] [potassium thiocyanate (KSCN), potassium thiocyanate] |  |  | promote potato sprouting |  |
| N#C[S-].[Na+] [sodium thiocyanate (NaSCN), sodium thiocyanate] |  |  | promote potato sprouting |  |
